# Laboratory results as given in ChEMBL document CHEMBL1201862, “PubChem BioAssay data set” (2004).
# Activity calls are given as the source filed them.
# Legend:
# [1] = molecular target: Glyceraldehyde-3-phosphate dehydrogenase (Homo sapiens, UniProt P04406)
# [2] = molecular target: T1, Alkaline phosphatase, tissue-nonspecific isozyme (Homo sapiens, UniProt P05186); test: human TNAP enzyme inhibitors, SAR follow-up, biochemical, luminescent, dose response (AID 1056)
# T1 sequence (P05186 whole entry): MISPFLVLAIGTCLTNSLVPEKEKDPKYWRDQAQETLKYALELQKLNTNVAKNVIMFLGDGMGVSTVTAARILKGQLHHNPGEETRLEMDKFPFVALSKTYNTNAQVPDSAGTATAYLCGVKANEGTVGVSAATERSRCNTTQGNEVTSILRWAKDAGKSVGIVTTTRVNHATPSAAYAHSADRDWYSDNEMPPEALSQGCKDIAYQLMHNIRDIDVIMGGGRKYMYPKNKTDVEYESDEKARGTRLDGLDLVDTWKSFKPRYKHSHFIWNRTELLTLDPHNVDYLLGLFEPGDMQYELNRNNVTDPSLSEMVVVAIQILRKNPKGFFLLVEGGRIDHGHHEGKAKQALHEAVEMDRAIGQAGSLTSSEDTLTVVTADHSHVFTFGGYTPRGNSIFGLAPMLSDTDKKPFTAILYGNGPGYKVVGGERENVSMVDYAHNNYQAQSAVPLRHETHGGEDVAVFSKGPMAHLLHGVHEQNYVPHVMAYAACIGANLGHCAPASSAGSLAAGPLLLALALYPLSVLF
# Exodeoxyribonuclease V = Exodeoxyribonuclease V (Escherichia coli (strain K12), UniProt P04993+P07648+P08394); test: E. coli RecBCD inhibitors, dose response, counter-screen for AddAB inhibitor project, absorbance, V66 E. coli, mutant T4 phage (AID 492957); type: functional, cell-based, Escherichia coli str. K-12 substr. MG1655
# Exodeoxyribonuclease V, sequence (P04993 whole entry): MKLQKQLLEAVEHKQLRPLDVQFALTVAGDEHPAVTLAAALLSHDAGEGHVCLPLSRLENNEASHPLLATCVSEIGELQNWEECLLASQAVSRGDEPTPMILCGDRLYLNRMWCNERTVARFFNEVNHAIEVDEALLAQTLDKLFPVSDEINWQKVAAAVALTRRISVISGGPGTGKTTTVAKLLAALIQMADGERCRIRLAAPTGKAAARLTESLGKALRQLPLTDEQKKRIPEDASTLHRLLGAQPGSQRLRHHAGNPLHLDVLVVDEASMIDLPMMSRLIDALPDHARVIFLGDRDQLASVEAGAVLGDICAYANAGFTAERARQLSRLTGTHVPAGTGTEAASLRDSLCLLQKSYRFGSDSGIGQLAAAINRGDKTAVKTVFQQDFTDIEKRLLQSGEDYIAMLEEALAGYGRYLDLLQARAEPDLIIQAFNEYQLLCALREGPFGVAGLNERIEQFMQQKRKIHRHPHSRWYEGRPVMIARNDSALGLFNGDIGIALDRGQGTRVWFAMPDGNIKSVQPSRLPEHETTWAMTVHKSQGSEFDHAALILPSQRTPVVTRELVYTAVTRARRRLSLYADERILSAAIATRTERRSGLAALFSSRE
# Exodeoxyribonuclease V, sequence (P07648 whole entry): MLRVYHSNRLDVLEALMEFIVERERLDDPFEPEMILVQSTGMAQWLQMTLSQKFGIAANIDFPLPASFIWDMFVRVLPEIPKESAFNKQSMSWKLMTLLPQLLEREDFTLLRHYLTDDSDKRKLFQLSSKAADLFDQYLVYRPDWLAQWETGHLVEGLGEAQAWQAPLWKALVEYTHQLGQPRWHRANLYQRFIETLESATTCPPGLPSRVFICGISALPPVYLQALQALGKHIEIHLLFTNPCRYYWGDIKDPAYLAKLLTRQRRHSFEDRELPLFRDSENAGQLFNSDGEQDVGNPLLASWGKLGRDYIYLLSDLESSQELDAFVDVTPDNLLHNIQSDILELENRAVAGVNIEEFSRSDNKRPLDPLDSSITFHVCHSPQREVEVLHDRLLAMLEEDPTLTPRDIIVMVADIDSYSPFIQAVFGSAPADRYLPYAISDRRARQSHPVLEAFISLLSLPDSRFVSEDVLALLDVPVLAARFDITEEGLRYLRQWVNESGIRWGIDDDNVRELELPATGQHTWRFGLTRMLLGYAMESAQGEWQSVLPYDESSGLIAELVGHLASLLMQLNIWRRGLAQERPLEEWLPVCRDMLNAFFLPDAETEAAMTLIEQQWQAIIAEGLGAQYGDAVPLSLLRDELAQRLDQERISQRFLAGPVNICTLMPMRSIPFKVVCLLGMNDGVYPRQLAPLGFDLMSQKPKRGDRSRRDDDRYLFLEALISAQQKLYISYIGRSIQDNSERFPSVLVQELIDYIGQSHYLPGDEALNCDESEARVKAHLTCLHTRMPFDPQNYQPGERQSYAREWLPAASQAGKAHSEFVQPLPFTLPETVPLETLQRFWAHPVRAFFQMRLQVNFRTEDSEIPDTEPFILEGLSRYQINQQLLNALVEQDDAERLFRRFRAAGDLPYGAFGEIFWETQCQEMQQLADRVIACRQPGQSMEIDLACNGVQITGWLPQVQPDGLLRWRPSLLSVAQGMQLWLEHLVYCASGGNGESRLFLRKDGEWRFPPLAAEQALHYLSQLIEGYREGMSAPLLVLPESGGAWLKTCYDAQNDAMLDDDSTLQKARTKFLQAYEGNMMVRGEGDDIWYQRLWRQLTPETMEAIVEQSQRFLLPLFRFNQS
# Exodeoxyribonuclease V, sequence (P08394 whole entry): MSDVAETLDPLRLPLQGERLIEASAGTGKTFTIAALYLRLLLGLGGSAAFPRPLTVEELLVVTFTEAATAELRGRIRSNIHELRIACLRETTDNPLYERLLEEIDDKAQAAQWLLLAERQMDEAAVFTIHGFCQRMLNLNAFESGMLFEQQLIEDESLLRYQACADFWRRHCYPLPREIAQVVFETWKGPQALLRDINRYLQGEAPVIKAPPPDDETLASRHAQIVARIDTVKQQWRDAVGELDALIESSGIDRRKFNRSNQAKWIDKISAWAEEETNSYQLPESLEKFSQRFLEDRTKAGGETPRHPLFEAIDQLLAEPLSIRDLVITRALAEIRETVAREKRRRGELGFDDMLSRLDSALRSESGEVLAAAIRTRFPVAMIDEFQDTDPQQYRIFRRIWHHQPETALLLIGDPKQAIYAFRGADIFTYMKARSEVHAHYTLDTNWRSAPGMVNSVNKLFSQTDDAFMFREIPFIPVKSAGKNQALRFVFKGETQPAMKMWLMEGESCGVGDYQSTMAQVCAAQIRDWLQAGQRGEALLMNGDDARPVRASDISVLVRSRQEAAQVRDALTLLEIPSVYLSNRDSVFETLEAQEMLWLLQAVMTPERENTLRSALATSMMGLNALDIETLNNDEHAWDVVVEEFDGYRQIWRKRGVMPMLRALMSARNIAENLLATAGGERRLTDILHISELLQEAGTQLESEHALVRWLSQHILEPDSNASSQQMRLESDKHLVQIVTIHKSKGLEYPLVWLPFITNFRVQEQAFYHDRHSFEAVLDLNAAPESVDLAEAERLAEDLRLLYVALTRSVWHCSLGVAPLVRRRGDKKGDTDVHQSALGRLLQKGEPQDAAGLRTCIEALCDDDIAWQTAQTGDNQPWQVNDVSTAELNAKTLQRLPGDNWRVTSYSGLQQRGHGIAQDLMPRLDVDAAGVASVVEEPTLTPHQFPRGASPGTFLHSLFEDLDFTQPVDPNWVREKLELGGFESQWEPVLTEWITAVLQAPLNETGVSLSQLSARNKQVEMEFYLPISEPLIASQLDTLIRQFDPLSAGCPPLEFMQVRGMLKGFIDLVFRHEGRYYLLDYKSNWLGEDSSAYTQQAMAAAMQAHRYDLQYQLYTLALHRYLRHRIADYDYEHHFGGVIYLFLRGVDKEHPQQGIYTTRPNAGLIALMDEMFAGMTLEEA
# [3] = Counterscreen for AddAB inhibitors: absorbance-based bacterial cell-based high throughput dose response assay for inhibitors of bacterial viability. [Related pubchem assays (depositor defined):AID435030, AID449728, AID449731, AID488942, AID488955, AID488956]; type: functional
# [4] = molecular target: DNA dC->dU-editing enzyme APOBEC-3G (Homo sapiens, UniProt Q9HC16); type: functional;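 also: Dose-response counterscreen measuring inhibition of APOBEC3G DNA deaminase activity, run while confirming APOBEC3A inhibitors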
# DNA dC->dU-editing enzyme APOBEC-3G, sequence (Q9HC16 whole entry): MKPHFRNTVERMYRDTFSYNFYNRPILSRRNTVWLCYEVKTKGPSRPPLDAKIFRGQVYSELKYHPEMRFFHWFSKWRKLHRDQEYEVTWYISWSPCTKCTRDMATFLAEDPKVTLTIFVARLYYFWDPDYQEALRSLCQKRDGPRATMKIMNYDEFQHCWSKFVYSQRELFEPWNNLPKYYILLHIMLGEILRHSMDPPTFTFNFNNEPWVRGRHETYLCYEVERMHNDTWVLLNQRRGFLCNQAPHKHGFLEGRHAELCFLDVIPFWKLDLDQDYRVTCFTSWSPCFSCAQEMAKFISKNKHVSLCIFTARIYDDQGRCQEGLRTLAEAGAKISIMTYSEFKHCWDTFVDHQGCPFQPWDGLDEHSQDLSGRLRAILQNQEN
# [5] = molecular target: DNA dC->dU-editing enzyme APOBEC-3A (Homo sapiens, UniProt P31941); test: Dose Response confirmation of small molecule APOBEC3A DNA Deaminase Inhibitors via a fluorescence-based single-stranded DNA deaminase assay. [Related pubchem assays (depositor defined):AID493011, AID493024]; type: functional
# DNA dC->dU-editing enzyme APOBEC-3A, sequence (P31941 whole entry): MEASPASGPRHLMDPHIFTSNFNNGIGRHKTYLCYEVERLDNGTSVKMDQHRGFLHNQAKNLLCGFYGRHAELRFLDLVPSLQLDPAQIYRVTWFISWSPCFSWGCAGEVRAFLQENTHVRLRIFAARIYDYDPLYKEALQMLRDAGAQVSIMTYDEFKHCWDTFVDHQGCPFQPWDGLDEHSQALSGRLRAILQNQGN
# [6] = C. albicans growth with fluconazole, confirmation, fluorescence, retest (AID 2467); type: functional, cell-based
# H9c2 = test: cells; type: functional, cell-based; conditions: Rattus norvegicus, H9c2, Myocardium;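 also: confirmatory concentration-response retest of ultra-high-throughput screening hits for modulation of myocardial damage; cell death induced by hydrogen peroxide oxidative stress; compound pretreatment for 60 min then peroxide exposure for 2 h; potency is for protecting the cells against peroxide damage rather than for killing them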
# [7] = molecular target: Heat shock protein HSP 90-alpha (Homo sapiens, UniProt P07900); type: functional, organism-based
# [8] = Luminescence Cell-Based Dose Retest to Confirm Inhibitors of Cancer Stem Cells. [Related pubchem assays (depositor defined):AID2717, AID2721]; type: functional; conditions: Homo sapiens
# [9] = NIH-3T3 fibroblast cytotoxicity, dose response, cytotoxicity control, cell-based, fluorescence, Alamar Blue, secondary assay (AID 2327); type: functional;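 also: NIH-3T3 mouse fibroblasts cultured with fluconazole at 8 µg/mL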
# Glyceraldehyde-3-phosphate dehydrogenase, sequence (P04406 whole entry): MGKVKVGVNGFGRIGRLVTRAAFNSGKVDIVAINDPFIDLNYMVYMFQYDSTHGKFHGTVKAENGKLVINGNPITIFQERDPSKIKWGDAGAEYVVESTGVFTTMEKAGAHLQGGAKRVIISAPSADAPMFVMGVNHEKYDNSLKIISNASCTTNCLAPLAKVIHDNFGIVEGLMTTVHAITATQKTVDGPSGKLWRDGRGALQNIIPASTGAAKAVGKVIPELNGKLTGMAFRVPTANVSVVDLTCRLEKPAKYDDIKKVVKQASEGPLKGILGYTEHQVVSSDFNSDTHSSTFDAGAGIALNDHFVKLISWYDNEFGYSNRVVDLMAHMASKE
Structure (SMILES),IC50 (Exodeoxyribonuclease V),IC50 [3],IC50 [4],IC50 [5],other results
O=S(=O)(Nc1ccc2ccccc2c1)c1ccc(Br)cc1OC(F)(F)F,,,,,IC50 [1]: > 10 µM (inconclusive); IC50 [2]: > 10 µM (inactive)
CC(=O)Nc1ccc2nc(NC(=O)c3ccc([N+](=O)[O-])o3)sc2c1,> 119 µM (inactive),> 119 µM (inactive),,,
CC1=CC(C)(C)[N+](C)=CN1c1ccccc1,,,4.28 µM (active),2.19 µM (active),
CCc1nc(-c2ccc(C)nc2OC)no1,,,4.74 µM (active),3.49 µM (active),
O=C1c2ccccc2NC(c2ccc(-c3ccc(Br)cc3)o2)N1O (stereo not given),> 119 µM (inactive),> 119 µM (inactive),,,EC50 [6]: > 38 µM (not active); IC50 (H9c2): > 79 µM (inactive); AC50 [7]: 6.74 µM (active); AC50 [8]: 4.35 µM (active); EC50 [9]: > 150 µM (inconclusive)
